Results taken from US8617614B2, “Sustained release preparation for tissue regeneration therapy” (Ono Pharmaceutical Co., Ltd., priority 2006, dated 2013).

Legend:
[1] = test system: STZ induced diabetes model; assay: Oral glucose tolerance test (OGTT), insulin, STZ induced diabetes model; assay type: in vivo; settings: OGTT 2 g/kg, week 13; STZ rat; Test Group 3: 3 mg/kg oral twice daily
Description: Female Sprague-Dawley rats (8- to 11-week-old; Japan SLC, Inc.) were intraperitoneally administered 40 mg/kg of a citrate buffer (pH, approx. 4.5) of streptozotocin (STZ; Sigma). A normal control group was intraperitoneally given only the citrate buffer. Administration was carried out in accordance with the intended route of administration for clinical use. In Test Group 3, forced administration was carried out orally using a disposable syringe barrel and a rat stomach probe. In Test Group 4, intramuscular administration was carried out uniformly at four places within the muscle along the sciatic nerve in the femoral portion of the left leg. For subcutaneous administration in test Group 5, the animals were ether anesthetized, and subcutaneous administration was carried out in the dorsal region using a disposable syringe barrel and a disposable 25 G syringe needle. The volume of solution administered was computed based on the latest body weight. Thirteen weeks after the start of test substance administration, an oral glucose tolerance test (OGTT) was conducted on rats fasted for 18 hours. After drawing blood from the caudal vein of the fasting rats, 2 g/kg of glucose was orally force-fed. About 500 μL of blood was similarly collected from the caudal vein 30, 60 and 120 minutes after glucose administration, of which about 400 μL was EDTA-2Na treated, then centrifuged (3,000 rpm, 4° C., 10 min) with a centrifuge. The plasma was thereby collected, and the blood sugar was measured using a 7170 Clinical Analyzer (Hitachi, Ltd.). The remaining approximately 100 μL of blood was centrifuged (3,000 rpm, 4° C., 10 min) with a centrifuge, the serum was collected, and the insulin level was measured (ELISA method; Levis Insulin Kit (Shibayagi Co., Ltd)).

[2] = Blood concentration measurement test; assay type: in vivo; settings: male, Crl:CD (Sprague-Dawley), rat, plasma, 10 mg/kg
Description: Male Crl:CD (Sprague-Dawley) rats (SPF; Charles River Japan; 8-week-old) were subcutaneously administered the various preparations (microspheres) shown in Table 9 below at a dose of 5 mL/kg under non-fasting conditions. […] The blood thus obtained was centrifuged at 12,000 rpm for 2 minutes, and the supernatant was collected as plasma.
Blood concentration measurements of the present drug in the resulting plasma were carried out by a LC/MS/MS method. Pretreatment of the plasma consisted of adding an internal standard solution to the plasma and diluting with water, then loading into a solid-phase extraction cartridge column (ODS-B) and deproteinization by rinsing with water, followed by elution with methanol, concentration, and drying to hardness. The residue thus obtained was dissolved by adding 0.1% aqueous acetic acid/acetonitrile, and the resulting solution was poured into the LC/MS/MS apparatus.
• Present drug (Precursor ion (m/z)*: 429.2; Product ion (m/z)*: 79.2) • Internal standard (Precursor ion (m/z)*: 445.4; Product ion (m/z)*: 168.1) • *: Mass-to-charge ratio Retention time for present drug: 8.15 minutes • Test Group 1: Microspheres of Test Preparation 1 were administered subcutaneously at a dose of the present drug of 10 mg/kg. • Test Group 2: Microspheres of Test Preparation 2 were administered subcutaneously at a dose of the present drug of 10 mg/kg. • Test Group 3: Administered subcutaneously at a dose of the present drug of 10 mg/kg. • Test Group 4: Administered orally at a dose of the present drug of 10 mg/kg.
The test preparations used on the respective dose groups were formulated as shown below in Table 9. Each of the test preparations was prepared in general accordance with the method described in Preparation Example 1.

SDF-1 = SDF-1 production promoting effect, angiogenesis kit culture, ELISA; assay type: cell-based, human; settings: 100 nmol/L
Description: An angiogenesis kit (Kurabo Industries Ltd.) composed of normal human umbilical vein endothelial cells and normal human skin fibroblasts was procured and used.
Using a carbon dioxide incubator (BNA-121D) and using Angiogenesis Culture 2 provided with the angiogenesis kit as the liquid culture, culturing was carried out in a wet environment at 37° C. with 5% carbon dioxide/95% air.
Immediately after the kit arrived, the cells were cultured for 3 hours, following which the liquid culture was replaced and culturing was continued. Three days after the start of culturing, the liquid culture was again replaced. Six days after the start of culturing, treatment with the present drug was carried out by replacing the liquid culture. The treatment concentration was set to 100 nmol/L in each case. DMSO treatment was carried out as a negative control. Six, 24, 48 and 72 hours after treatment with the present drug, the culture supernatant was collected and furnished for measurement of the growth factors. The measured growth factors were EGF and SDF-1.
The culture supernatant was measured with the following ELISA kits.
Human SDF-1α Immunoassay (R&D Systems Inc., DSA00)

[3] = Influence on body weight, STZ induced diabetes model; assay type: in vivo; settings: STZ rat, Test Group 3: 3 mg/kg oral twice daily
Description: Female Sprague-Dawley rats (8- to 11-week-old; Japan SLC, Inc.) were intraperitoneally administered 40 mg/kg of a citrate buffer (pH, approx. 4.5) of streptozotocin (STZ; Sigma). A normal control group was intraperitoneally given only the citrate buffer.
Administration was carried out in accordance with the intended route of administration for clinical use. In Test Group 3, forced administration was carried out orally using a disposable syringe barrel and a rat stomach probe. In Test Group 4, intramuscular administration was carried out uniformly at four places within the muscle along the sciatic nerve in the femoral portion of the left leg. For subcutaneous administration in test Group 5, the animals were ether anesthetized, and subcutaneous administration was carried out in the dorsal region using a disposable syringe barrel and a disposable 25 G syringe needle. The volume of solution administered was computed based on the latest body weight.
The rat body weights were measured before test substance administration and 14 weeks after the start of test substance administration.

[4] = po, Test Group 4: present drug oral 10 mg/kg
[5] = sc, Test Group 3: present drug s.c. 10 mg/kg

O=C(O)COc1cccc2c1CCC=C2CCO/N=C(\c1ccccc1)c1cccnc1 [present drug, ({5-[2-({[(1E)-phenyl(pyridin-3-yl)methylene]amino}oxy)ethyl]-7,8-dihydronaphthalen-1-yl}oxy)acetic acid]
Insulin (ng/mL) After 30 minutes [1]: 2.197 ± 2.062 ng/mL | Insulin (ng/mL) After 60 minutes [1]: 1.808 ± 1.521 ng/mL | Insulin (ng/mL) After 120 minutes [1]: 2.130 ± 2.087 ng/mL | Insulin (ng/mL) Before glucose loading [1]: 2.138 ± 1.722 ng/mL | concentration at 1 hour [2, 4]: 785 ng/mL | concentration at 2 hours [2, 4]: 982 ng/mL | concentration at 4 hours [2, 4]: 1320 ng/mL | concentration at 8 hours [2, 4]: 705 ng/mL | concentration at 1 day [2, 4]: 80 ng/mL | concentration at 3 days [2, 4]: 0.04 ng/mL | concentration at 1 hour [2, 5]: 1750 ng/mL | concentration at 2 hours [2, 5]: 1400 ng/mL | concentration at 4 hours [2, 5]: 685 ng/mL | concentration at 8 hours [2, 5]: 870 ng/mL | concentration at 12 hours ([2]; sc, Test Group 3: present drug s.c. 10 mg/kg, 12 hours): 204 ng/mL | concentration at 1 day [2, 5]: 1.05 ng/mL | concentration at 2 days ([2]; sc, Test Group 3: present drug s.c. 10 mg/kg, 2 days): < 0.2 ng/mL | concentration at 3 days [2, 5]: 0.05 ng/mL | SDF-1 relative to the solvent control group (SDF-1; 72 hours after treatment): significantly increased | SDF-1, Drug group (SDF-1; culture supernatant 72 hours after treatment): 383 ± 36.0 pg/mL | Body weight (g) 0 weeks [3]: 219.1 ± 12.2 g | body weight relative to Test Group 2 ([3]; week 14): significant weight decreased
